This passage reports Ratio IC50 and IC50 results from ChEMBL document CHEMBL4431383, “Structure-activity relationship of novel series of 1,5-disubstituted tetrazoles as cyclooxygenase-2 inhibitors: Design, synthesis, bioassay screening and molecular docking studies” (Bioorg Med Chem Lett, 2016).

Some results are limits rather than exact numbers.

The nature of test [1]: Selectivity ratio of IC50 for recombinant human COX-2 to IC50 for ovine COX-1.
The target of test [2] is T1, Prostaglandin G/H synthase 2 (Homo sapiens, UniProt P35354).
T1 sequence (P35354 whole entry): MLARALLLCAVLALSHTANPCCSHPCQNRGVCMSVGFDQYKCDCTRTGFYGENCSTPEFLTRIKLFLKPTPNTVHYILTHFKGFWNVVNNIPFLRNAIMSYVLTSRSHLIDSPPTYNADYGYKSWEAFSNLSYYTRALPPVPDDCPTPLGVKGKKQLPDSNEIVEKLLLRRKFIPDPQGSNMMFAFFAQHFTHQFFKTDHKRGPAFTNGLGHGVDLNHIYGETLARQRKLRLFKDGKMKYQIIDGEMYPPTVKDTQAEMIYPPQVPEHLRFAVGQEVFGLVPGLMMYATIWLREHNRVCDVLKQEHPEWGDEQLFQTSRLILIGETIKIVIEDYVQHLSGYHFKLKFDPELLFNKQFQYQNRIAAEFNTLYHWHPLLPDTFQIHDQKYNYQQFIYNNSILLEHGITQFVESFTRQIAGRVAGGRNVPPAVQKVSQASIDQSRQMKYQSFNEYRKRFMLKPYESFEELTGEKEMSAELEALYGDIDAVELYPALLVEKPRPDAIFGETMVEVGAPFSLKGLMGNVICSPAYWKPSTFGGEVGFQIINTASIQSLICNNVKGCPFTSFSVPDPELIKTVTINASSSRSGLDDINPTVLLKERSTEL
Put plainly: Inhibition of recombinant human COX2 assessed as PGH2 formation preincubated for 10 mins followed by addition of arachidonic acid as substrate measured after 2 mins by ELISA. A general note: In an ELISA, binding on a coated surface is turned into a signal by an enzyme label.

For test [3], the target named is T2, Prostaglandin G/H synthase 1 (Ovis aries, UniProt P05979).
T2 sequence (P05979 whole entry): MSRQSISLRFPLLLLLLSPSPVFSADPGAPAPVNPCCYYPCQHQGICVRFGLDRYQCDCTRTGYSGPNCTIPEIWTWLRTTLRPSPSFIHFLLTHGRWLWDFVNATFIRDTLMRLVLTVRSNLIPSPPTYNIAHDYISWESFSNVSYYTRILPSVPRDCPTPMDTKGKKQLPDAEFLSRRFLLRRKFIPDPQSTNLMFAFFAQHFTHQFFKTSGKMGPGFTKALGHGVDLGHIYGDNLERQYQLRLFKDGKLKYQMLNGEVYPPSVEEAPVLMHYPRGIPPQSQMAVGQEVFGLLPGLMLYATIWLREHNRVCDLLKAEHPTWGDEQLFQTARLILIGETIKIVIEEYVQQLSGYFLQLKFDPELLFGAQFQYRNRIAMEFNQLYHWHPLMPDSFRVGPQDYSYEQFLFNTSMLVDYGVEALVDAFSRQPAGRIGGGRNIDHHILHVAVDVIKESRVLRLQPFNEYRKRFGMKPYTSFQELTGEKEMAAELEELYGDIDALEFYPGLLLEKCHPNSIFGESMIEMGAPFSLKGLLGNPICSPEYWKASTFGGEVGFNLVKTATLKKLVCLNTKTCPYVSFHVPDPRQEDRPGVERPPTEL
Kind of test: Inhibition of ovine COX1 assessed as PGH2 formation preincubated for 10 mins followed by addition of arachidonic acid as substrate measured after 2 mins by ELISA.

Test [4] in a line: Selectivity ratio of IC50 for ovine COX-1 to IC50 for recombinant human COX-2.

For `NS(=O)(=O)c1ccc(-c2nnnn2-c2ccc(CO)cc2)cc1`, the Ratio IC50 in test [1] is 1.14; in test [4], 0.87. Further, the half-maximal inhibitory concentration (IC50) in test [2] came out at 24 µM; in test [3] it was 21 µM.
In the case of `CS(=O)(=O)c1ccc(Cc2nnnn2-c2ccc(CO)cc2)cc1`, the figures for the Ratio IC50 in test [1] and in test [4] were more than 0.19 and more than 5.2, respectively. For the same compound, the IC50 is 38 µM in test [2] and more than 200 µM in test [3].
`CS(=O)(=O)c1ccc(Cc2nnnn2-c2ccc(CCO)cc2)cc1`: the Ratio IC50 is more than 0.015 in test [1] and more than 67 in test [4]. The figures for the concentration for half-maximal inhibition (IC50) in test [2] and in test [3] were 3 µM and more than 200 µM, respectively.
With `CS(=O)(=O)c1ccc(Cc2nnnn2-c2ccc(O)cc2)cc1`, the IC50 in test [2] is more than 200 µM; in test [3], 85 µM. Besides, the Ratio IC50 in test [4] is more than 0.42.
Regarding `CS(=O)(=O)c1ccc(-c2nnnn2-c2ccc(O)cc2)cc1`, the IC50 was more than 300 µM in test [2] and more than 500 µM in test [3]. For the same compound, the Ratio IC50 in test [4] was more than 1.7.
Turning to `NS(=O)(=O)c1ccc(-c2nnnn2-c2ccc(O)cc2)cc1`, the figures for the IC50 in test [2] and in test [3] were more than 500 µM and 100 µM, respectively. Moreover, in test [4], the Ratio IC50 is more than 0.2.
For `CS(=O)(=O)c1ccc(-c2nnnn2-c2ccc(CCO)cc2)cc1`, the IC50 in test [2] is 70 µM; in test [3], more than 500 µM. In addition, the Ratio IC50 in test [4] was more than 7.1.
On the same counts, the results for `NS(=O)(=O)c1ccc(-c2nnnn2-c2ccc(CCO)cc2)cc1` are 99 µM, more than 200 µM and more than 2.
Take `CS(=O)(=O)c1ccc(-c2nnnn2-c2ccc(CO)cc2)cc1`: the results for the Ratio IC50 in test [1] and in test [4] were 55 and more than 0.02, respectively. Also, the values for the IC50 in test [2] and in test [3] were more than 500 µM and 9 µM, respectively.

As a reminder, the IC50 is the concentration that inhibits the measured activity by half.
